These results are taken from ChEMBL document CHEMBL4825721, “Dual Glycolate Oxidase/Lactate Dehydrogenase A Inhibitors for Primary Hyperoxaluria” (ACS Med Chem Lett, 2021).

Active and inactive are the calls of the source. The rule behind the calls is not given here.

In data set [1] the target is L-lactate dehydrogenase A chain (Homo sapiens, UniProt P00338). The experiment in a line: Inhibition of recombinant human LDHA expressed in BL21 gold (DE3) using sodium pyruvate as substrate preincubated for 10 mins followed by sodium pyruvate and […] addition.
Data set [2] has as its target T1, L-lactate dehydrogenase A chain (Mus musculus, UniProt P06151). The experiment in a line: Inhibition of recombinant mouse LDHA expressed in BL21 gold (DE3) using sodium pyruvate as substrate preincubated for 10 mins followed by sodium pyruvate and […] addition.
Data set [3] deals with T1, L-lactate dehydrogenase A chain. The experiment in a line: Inhibition of LDHA in wild type CD1 mouse primary hepatocyte assessed as inhibition of lactate production using pyruvate as substrate measured after 30 mins by LC-MS analysis. Format: tissue-based.
In data set [4] the target is T2, 2-Hydroxyacid oxidase 1 (Homo sapiens, UniProt Q9UJM8).
T2 sequence (Q9UJM8 whole entry): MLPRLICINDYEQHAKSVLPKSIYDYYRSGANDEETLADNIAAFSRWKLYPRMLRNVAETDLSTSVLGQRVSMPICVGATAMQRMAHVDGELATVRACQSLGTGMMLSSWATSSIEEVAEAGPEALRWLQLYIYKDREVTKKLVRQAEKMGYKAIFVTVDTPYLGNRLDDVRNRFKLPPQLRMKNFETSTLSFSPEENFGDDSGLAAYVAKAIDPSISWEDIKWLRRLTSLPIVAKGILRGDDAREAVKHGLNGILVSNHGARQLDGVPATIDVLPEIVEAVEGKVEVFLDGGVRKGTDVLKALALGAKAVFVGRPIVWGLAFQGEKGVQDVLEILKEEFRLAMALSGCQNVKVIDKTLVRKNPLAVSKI
Kind of data set: Inhibition of recombinant human GOX expressed in Escherichia coli C41 (DE3) using glycolate as substrate preincubated for 10 mins followed by substrate addition measured by Amplex red and horseradish peroxidase based fluorescence assay.

For data set [5], the target named is T3, 2-Hydroxyacid oxidase 1 (Mus musculus, UniProt Q9WU19).
T3 sequence (Q9WU19 whole entry): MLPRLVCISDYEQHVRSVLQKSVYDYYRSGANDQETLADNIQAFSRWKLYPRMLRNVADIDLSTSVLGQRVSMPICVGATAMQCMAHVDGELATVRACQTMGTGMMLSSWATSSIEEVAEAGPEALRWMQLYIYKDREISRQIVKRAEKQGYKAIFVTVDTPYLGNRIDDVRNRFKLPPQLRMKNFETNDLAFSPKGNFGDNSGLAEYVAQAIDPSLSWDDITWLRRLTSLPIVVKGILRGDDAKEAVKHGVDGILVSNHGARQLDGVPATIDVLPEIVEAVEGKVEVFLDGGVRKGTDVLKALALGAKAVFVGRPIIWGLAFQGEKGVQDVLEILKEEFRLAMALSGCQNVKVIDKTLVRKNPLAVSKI
The experiment in a line: Non competitive inhibition of mouse glycolate oxidase in hyperoxaluric-Agxt knockdown mouse primary hepatocyte assessed as reduction in oxalate production in the presence of glycolate measured upto 72 hrs by enzymatic assay. Format: tissue-based.

Data set [6] concerns the target T3, 2-Hydroxyacid oxidase 1. Kind of data set: Inhibition of recombinant mouse GOX expressed in Escherichia coli C41 (DE3) using glycolate as substrate preincubated for 10 mins followed by substrate addition measured by Amplex red and horseradish peroxidase based fluorescence assay.
In data set [7] the test system is Mus musculus. Kind of data set: In vivo inhibition of GOX/LDHA in C57BL/6N mouse assessed as increase in plasma glycolate levels at 100 mg/kg, po measured after 6 hrs. In kind it is functional, organism-based.
A short description of data set [8]: Inhibition of GOX/LDHA in Ag xt knockdown PH1 mouse primary hepatocyte assessed as reduction of oxalate production in the presence of glycolate measured after 2 hrs by ICMS analysis. Format: tissue-based.
Data set [9] is described as follows: Drug distribution in C57BL/6N mouse liver at 100 mg/kg, po measured after 6 hrs by LC-MS/MS analysis. Format: ADME, organism-based. The settings on record: in vivo.
The target of data set [10] is T4, Hydroxyacid oxidase 1 (Sus scrofa, UniProt I3LVF1).
T4 sequence (I3LVF1 whole entry): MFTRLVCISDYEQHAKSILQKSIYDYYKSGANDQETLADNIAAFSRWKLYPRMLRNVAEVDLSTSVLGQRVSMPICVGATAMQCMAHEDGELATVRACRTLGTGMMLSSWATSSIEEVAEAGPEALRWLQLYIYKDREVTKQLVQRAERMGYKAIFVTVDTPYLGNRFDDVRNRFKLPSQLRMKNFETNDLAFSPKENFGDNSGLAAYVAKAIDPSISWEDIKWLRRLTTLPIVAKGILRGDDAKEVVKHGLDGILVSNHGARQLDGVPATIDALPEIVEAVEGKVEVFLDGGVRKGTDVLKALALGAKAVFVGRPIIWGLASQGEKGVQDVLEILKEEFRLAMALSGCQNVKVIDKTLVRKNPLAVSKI
The experiment in a line: Inhibition of pig HAO1 in presence of NADH by spectrometry analysis.

A short description of data set [11]: Drug distribution in C57BL/6N mouse liver at 100 mg/kg, po measured after 2 hrs by LC-MS/MS analysis. Format: ADME, organism-based. The note with it: in vivo.
Data set [12] can be described thus: In vivo inhibition of GOX/LDHA in C57BL/6N mouse assessed as increase in plasma glycolate levels at 100 mg/kg, po measured after 2 hrs. Format: functional.

Consider `NS(=O)(=O)c1ccc(Cc2c(-c3ccc(F)c(-c4ccc(Sc5nn[nH]c5C(=O)O)cc4)c3)nn(-c3nc(C(=O)O)cs3)c2CC2CC2)cc1F`, for which the IC50 (usually the concentration that inhibits the measured activity by half) was found to be 0.3 nM in data set [1], 0.2 nM in data set [2], 230 nM in data set [3] and 1.1 nM in [4].

With `NS(=O)(=O)c1ccc(Cc2c(-c3ccc(F)c(-c4ccc(-c5nn[nH]c5C(=O)O)cc4)c3)nn(-c3nc(C(=O)O)cs3)c2CC2CC2)cc1F`, the IC50 in data set [1] amounted to 0.3 nM; in data set [2], 0.4 nM; in data set [3], 170 nM; in [4] it was 3.6 nM.

With `O=C(O)c1nnsc1Sc1ccc(Cl)cc1`, the Ki (in general, the equilibrium dissociation constant of an inhibitor or competing ligand from its target) in data set [5] came out at 4500 nM.

Regarding `NS(=O)(=O)c1ccc(Cc2c(-c3cccc(Sc4[nH]nnc4C(=O)O)c3)nn(-c3nc(C(=O)O)cs3)c2CC2CC2)cc1F`, the IC50 in data set [6] was found to be 7.7 nM; in data set [1] it was 0.5 nM; in [2] it was 0.7 nM; in [3] it was 136 nM; in data set [8] it was 88 nM; in [4], 4.7 nM. Besides, in [7], the inhibition entry is “inactive”. The Drug uptake entry in [9] is recorded as “Not Active”.

With `NS(=O)(=O)c1ccc(Cc2c(-c3ccc(F)c(-c4ccc(Oc5nn[nH]c5C(=O)O)cc4)c3)nn(-c3nc(C(=O)O)cs3)c2CC2CC2)cc1F`, the IC50 in [1] was found to be 0.07 nM; in [2], 0.4 nM; in [3], 198 nM; in [4] it was 1.2 nM.

Turning to `NS(=O)(=O)c1ccc(Cc2c(-c3ccc(F)c(Oc4[nH]nnc4C(=O)O)c3)nn(-c3nc(C(=O)O)cs3)c2CC2CC2)cc1F`, the IC50 turned out to be 0.4 nM in [1], 0.3 nM in data set [2], 732 nM in data set [3] and 11 nM in [4].

For `O=C1NC(=O)C(c2ccc(-c3ccc(Br)cc3)cc2)=C1O`, the IC50 in data set [10] worked out at 87 nM.

For the molecule `O=C(O)c1[nH]nnc1Sc1ccc(Cl)cc1`, the IC50 came out at 14.6 nM in data set [6], 149 nM in [8] and 6.7 nM in data set [4]. Besides, the Drug uptake entry in data set [11] was “Active”. For the same molecule, in data set [12], the “fold change (FC)” value worked out at 4.

With `NS(=O)(=O)c1ccc(Cc2c(-c3ccc(F)c(-c4cccc(Oc5[nH]nnc5C(=O)O)c4)c3)nn(-c3nc(C(=O)O)cs3)c2CC2CC2)cc1F`, the IC50 in data set [1] turned out to be 0.1 nM; in data set [2] it was 0.2 nM; in data set [3] it was 143 nM; in data set [4] it was 0.9 nM. The inhibition result in data set [7] was “inactive”. Moreover, in data set [9], the Drug uptake entry is reported as “Not Active”.

Consider `NS(=O)(=O)c1ccc(Cc2c(-c3cccc(-c4ccccc4)c3)nn(-c3nc(C(=O)O)cs3)c2CC2CC2)cc1`, for which the IC50 in data set [2] was 0.1 nM; in data set [8] it was 181 nM.
